# Experiments:
# [1] = tested on: rice; assay: Test C flooded paddy test; type: in vivo, Oryza sativa; conditions: Flood
# Outline: (§1)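 Visual ratings from 0, no effect, to 100, complete control, were made against untreated controls after 13–15 greenhouse days. Compounds had gone straight into paddy water 3 cm above the soil, kept at that depth, on 2-leaf-stage plants.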
# [2] = tested on: blackgrass; assay: Test A postemergence herbicide test; type: in vivo, Alopecurus myosuroides
# Outline: (§2)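 Blackgrass and galium grown in pots of loam soil–sand blend, treated postemergence at 2–10 cm height, one- to two-leaf stage. Plants kept in greenhouse ~10 days, then visually rated for injury against untreated controls on a 0–100 scale (0 no effect, 100 complete control).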
# [3] = tested on: ryegrass, Italian; assay: Test A pre-/postemergence herbicide test; type: in vivo, Lolium multiflorum; conditions: for Plant response rating, Ryegrass, Italian: 125 g ai/ha
# Outline: (§3)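 Greenhouse pot test with pre- and postemergence application of surfactant-containing solvent formulations. Postemergence plants were 2–10 cm, one- to two-leaf stage. Response scored visually after ~10 days, 0 (no effect) to 100 (complete control).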
# [4] = tested on: ragweed; assay: Test A pre-/postemergence herbicide test; type: in vivo, Ambrosia elatior; conditions: for Plant response rating, Ragweed: 125 g ai/ha
# Outline: as §3
# [5] = tested on: kochia; assay: Test A pre-/postemergence herbicide test; type: in vivo, Kochia scoparia; conditions: for Plant response rating, Kochia: 125 g ai/ha
# Outline: as §3
# [6] = tested on: sedge, umbrella; assay: Test C flooded paddy test; type: in vivo, Cyperus difformis; conditions: Flood
# Outline: as §1
# [7] = tested on: galium; assay: Test A postemergence herbicide test; type: in vivo, Galium aparine; conditions: 125 g ai/ha, visual rating on 0 to 100 scale (0 no effect, 100 complete control), approx. 10 days
# Outline: as §2
# [8] = tested on: ducksalad; assay: Test C flooded paddy test; type: in vivo, Heteranthera limosa; conditions: Flood
# Outline: as §1
# [9] = 125 g ai/ha, scale of 0 to 100 where 0 is no effect and 100 is complete control, 13 to 15 days
# [10] = 250 g ai/ha, scale of 0 to 100 where 0 is no effect and 100 is complete control, 13 to 15 days
# [11] = Postemergence, visual rating on 0 to 100 scale (0 no effect, 100 complete control), approx. 10 days
# [12] = Preemergence, 0 to 100 scale where 0 is no effect and 100 is complete control
# [13] = Preemergence, 500 g ai/ha, visual rating on 0 to 100 scale (0 no effect, 100 complete control)
structure (smiles),measurement,setting,value
O=C1NCC(c2ccc(F)c(F)c2)C1C(=O)Nc1ccc(F)c(F)c1F (stereo not drawn) [Compound 346],"Plant response rating, Rice",[1]; [9],0
same,"Plant response rating, Rice",[1]; [10],0
same,"Plant response rating, Rice","[1]; 500 g ai/ha, scale 0 to 100",0
same,"Plant response rating, Rice","[1]; 1000 g ai/ha, scale 0 to 100",0
same,"Plant response rating, Blackgrass","[2]; 125 g ai/ha, visual rating on 0 to 100 scale (0 no effect, 100 complete control), approx. 10 days",20
same,"Plant response rating, Blackgrass","[2]; 500 g ai/ha, 0 to 100 scale (0 no effect, 100 complete control)",50
same,"Plant response rating, Ryegrass, Italian",[3]; [11],20
same,"Plant response rating, Ryegrass, Italian",[3]; [12],0
same,"Ryegrass, Italian plant response rating",[3]; [13],30
same,"Plant response rating, Ragweed",[4]; [11],0
same,"Plant response rating, Ragweed",[4]; [12],0
same,Ragweed plant response rating,[4]; [13],0
same,"Plant response rating, Kochia",[5]; [11],0
same,"Plant response rating, Kochia",[5]; [12],0
same,Kochia plant response rating,[5]; [13],80
same,"Plant response rating, Sedge, Umbrella",[6]; [9],0
same,"Plant response rating, Sedge, Umbrella",[6]; [10],0
same,"Plant response rating, Sedge, Umbrella","[6]; 500 g ai/ha, scale 0 to 100",0
same,"Plant response rating, Sedge, Umbrella","[6]; 1000 g ai/ha, scale 0 to 100",0
same,"Plant response rating, Galium",[7],30
same,"Plant response rating, Ducksalad",[8]; [9],95
same,"Plant response rating, Ducksalad",[8]; [10],100
same,"Plant response rating, Ducksalad","[8]; 500 g ai/ha, scale 0 to 100",100
same,"Plant response rating, Ducksalad","[8]; 1000 g ai/ha, scale 0 to 100",100
